Measured values taken from the NIST ThermoML archive (doi:10.1016/j.fluid.2013.05.019).
Numbers after ± are expanded uncertainties. One block for each compound: values may come before it.

Tests used:
[1] = Boiling temperature at pressure P; settings: 101 kPa; Liquid; Ebulliometric method (Recirculating still)
[2] = Liquid, Manometric method

Structure (SMILES): C=C(C)C(C)C [2,3-dimethyl-1-butene]
Boiling temperature at pressure P [1]: 55.73 ± 0.04 °C

Structure (SMILES): CCCCCCC [heptane]
vapor or sublimation pressure ([2]; 370.27 K): 97.43 ± 0.32 kPa
vapor or sublimation pressure ([2]; 370.74 K): 98.52 ± 0.33 kPa
vapor or sublimation pressure ([2]; 370.93 K): 99.39 ± 0.34 kPa
vapor or sublimation pressure ([2]; 371.13 K): 99.78 ± 0.33 kPa
vapor or sublimation pressure ([2]; 371.52 K): 101.07 ± 0.34 kPa
vapor or sublimation pressure ([2]; 372.25 K): 103.43 ± 0.32 kPa
vapor or sublimation pressure ([2]; 372.36 K): 103.56 ± 0.35 kPa
vapor or sublimation pressure ([2]; 372.56 K): 104.41 ± 0.34 kPa
vapor or sublimation pressure ([2]; 372.76 K): 104.67 ± 0.35 kPa
vapor or sublimation pressure ([2]; 372.97 K): 105.83 ± 0.36 kPa
vapor or sublimation pressure ([2]; 373.17 K): 106.29 ± 0.34 kPa
vapor or sublimation pressure ([2]; 373.48 K): 107.02 ± 0.34 kPa
Boiling temperature at pressure P [1]: 98.49 ± 0.04 °C

Other lines, results leading:

Boiling temperature at pressure P [1]: 73.00 ± 0.04 °C
Structure (SMILES): CC(C)=C(C)C [2,3-dimethyl-2-butene]

Boiling temperature at pressure P [1]: 115.20 ± 0.04 °C
Structure (SMILES): Cc1ccsc1 [3-methylthiophene]

Boiling temperature at pressure P [1]: 84.27 ± 0.04 °C
Structure (SMILES): c1ccsc1 [thiophene]
